Data on one molecule can be found in patent US4020111A, “Propynyloxy alkyl arene insecticides” (priority 1975, dated 1977).

Data set [1] has as its system polyvalent resistant (CH strain) houseflies. Nature of the data set: whole plant or invertebrate. To be noted: CH strain. The data set is classed as in vivo, housefly (CH strain).
The subject of the next data set is CH strain flies. As to the kind of experiment: spray application of pyrethrum, average percent knockdown with time. Type of data set: in vivo, housefly (CH strain). To be noted: pyrethrum 100 + synergist 100 mg/cc. Here is the method:
The average percent knockdown of CH strain flies, as a function of time, resulting from spray application of pyrethrum, alone and with synergists, are given in Table XXXXIII. Duplicate tests were performed using 50 CH strain houseflies per test. Test solutions of 100 mg and 200mg of pyrethrum per cc of acetone, 200 mg of synergist per cc of acetone, and a mixture of 100 mg of pyrethrum and 100 mg of synergist per cc of acetone were prepared. The fifty CH strain houseflies were put in a 40 liter spray chamber and 1 cc of the test solution was sprayed into the test chamber with a spray pistol. The synergists alone at 200 mg/cc caused no knockdown.

For data set [2], the system named is mice. Nature of the data set: extension of Secobarbital sleeping time by synergists. Type of data set: in vivo, Swiss albino white male mice. To be noted: Secobarbital 37 mg/K; for Relative Sleeping Time: treated/control. The procedure, abridged: (§1)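 Swiss albino male mice (~38 days, 25-30 g) given synergist at 74.0 or 110.0 mg/kg in corn oil 1 h before Secobarbital 37.0 mg/kg or Noludar 110.0 mg/kg in water. Sleeping time measured from drug dosing to righting-reflex recovery; relative sleeping time = treated ÷ drug-only control.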

Data set [3] relates to mice. Nature of the data set: extension of Noludar sleeping time by synergists. The data set is classed as in vivo, Swiss albino white male mice. To be noted: Noludar 110 mg/K, synergist 110 mg/K. The method in brief: as §1
Data set [4] concerns mice. As to the kind of experiment: synergism of acute toxicity of Dimetilan, GS 13005, Secobarbital and Methadone (intraperitoneal). The data set is classed as in vivo, Swiss albino white male mice. To be noted: 48 hours, of eight mice. The procedure, abridged:
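Male Swiss albino mice (5–6 weeks, 23–27 g), eight per dose; synergist in corn oil given i.p. 1 h before i.p. insecticide or drug (drugs in distilled water). Lethality recorded over at least 6 h; controls received corn oil plus agent alone.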

The subject of the next data set is houseflies. Nature of the data set: percent kill with Diazinon, Table XXVII (strain not given). The data set is classed as in vivo, housefly. To be noted: Diazinon 5 + synergist 10 μg/fly, 1440 min.

As to `C#CCON=Cc1cccc2ccccc12` [I-I], the entries for the “percent kill after 24 hours” value in data set [1] (GS 13005 1 + synergist 2 μg/fly) and in data set [1] (Pyrethrum 2 + synergist 4 μg/fly) were 47% and 52%, respectively. Besides, the average percent knockdown with CH strain flies (5 min) is 4%; in the data set with CH strain flies (10 min), 7%; in the data set on CH strain flies (15 min) it was 19%; with CH strain flies (20 min), 29%; with CH strain flies (25 min) it was 40%; with CH strain flies (30 min), 49%. The average percent knockdown is on record as 57% in the data set with CH strain flies (40 min), 86% in the data set on CH strain flies (50 min) and 92% with CH strain flies (60 min). The figures for the “Mean Sleeping Time” value in the data set on mice [2] (synergist 74 mg/K), in the data set on mice [2] (synergist 110 mg/K) and with mice [3] were 31 min, 102 min and 62 min, respectively. Besides, the “Relative Sleeping Time” value in the data set with mice [2] (synergist 74 mg/K) worked out at 1.1; in the data set with mice [2] (synergist 110 mg/K), 1.7; in the data set with mice [3] (treated/control), 2.1. Further, the “number of mice dead” value is 0 in the data set with mice [4] (Dimetilan 8 mg/kg + synergist 80 mg/kg ip) and 3 with mice [4] (Dimetilan 8 mg/kg + synergist 240 mg/kg ip). Besides, in the data set on houseflies, the percent kill came out at 55%.
